Measurements taken from patent US20080300281A1, “Inhibition of p38 Kinase Activity Using Aryl and Heteroaryl Substituted Heterocyclic Ureas” (priority 1997, published 2008).

CC(C)(C)c1cc(NC(=O)Nc2cccc(Cl)c2Cl)c(-c2ccncc2)o1 [Entry 38, N-(2-(4-Pyridinyl)-5-tert-butyl-3-furyl)-N′-(2,3-dichlorophenyl)urea]
melting point: 195 to 198 °C
